# Measurements taken from patent US20110076274A1, “MATERIALS AND METHODS RELATING TO A G-PROTEIN COUPLED RECEPTOR” (priority 2008, published 2011).
# Where two headings read alike, the source gives them in different places.
# B1: PTH: PTH, 40 nM or 100 nM, activates the PTH receptor (peptide, UniProt P01270 32-115, looked up)
# Parathyroid hormone: SVSEIQLMHNLGKHLNSMERVEWLRKKLQDVHNFVALGAPLAPRDAGSQRPRKKEDNVLVESHEKSLGEADKADVNVLTKAKSQ
# modifications: Parathyroid hormone
# Assays:
# GPR55 [1] = target: T1, GPR55 (Homo sapiens, UniProt Q9Y2T6); details: cited from earlier work; for EC50: source per value in footnotes (Johns 2007, Ryberg 2007, Brown 2007), read-out: GTPγS EC50
# T1 sequence (Q9Y2T6 whole entry): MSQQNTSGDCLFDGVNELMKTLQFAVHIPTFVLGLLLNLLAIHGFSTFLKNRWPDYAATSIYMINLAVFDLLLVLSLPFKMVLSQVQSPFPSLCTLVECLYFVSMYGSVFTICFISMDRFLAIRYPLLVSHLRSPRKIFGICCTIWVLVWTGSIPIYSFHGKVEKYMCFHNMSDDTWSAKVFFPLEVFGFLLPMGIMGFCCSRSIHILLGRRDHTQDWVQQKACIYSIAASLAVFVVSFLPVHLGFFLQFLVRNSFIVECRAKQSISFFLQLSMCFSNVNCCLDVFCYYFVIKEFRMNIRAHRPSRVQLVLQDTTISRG
# MDA-MB231 subclone = assay: Boyden chamber chemotaxis assay, Protocol I (ligand concentration gradient); format: cell-based, human; details: serum starved cells; test drug (1 μM per Protocol I) in 0.01% DMSO in lower wells; 4 hours
# Procedure: 10 μl of the resulting cell suspension was transferred to a haemocytometer and the number of cells per ml of suspension was calculated from the counted cell number. Serum free medium was added to the cell suspension in a quantity necessary to bring the suspension to a cell number of 1×10^6 cells per ml. […]
# GPR55 [2] = target: T1, GPR55; details: cited from earlier work
# human osteoclasts = assay: Cell polarisation (F-actin rings) and resorption by human osteoclasts; format: cell-based
# Description: Number of F-actin rings in osteoclast cultures, expressed as percentage of vehicle (0.1% DMSO) control±SEM (n=4-7 experiments with five replicates for each). ** P<0.01 compared to control, ANOVA with Dunnett's multiple comparison test.
# CB2 [3] = target: T2, CB2 (Homo sapiens, UniProt P34972); details: cited from earlier work
# T2 sequence (P34972 whole entry, species assumed): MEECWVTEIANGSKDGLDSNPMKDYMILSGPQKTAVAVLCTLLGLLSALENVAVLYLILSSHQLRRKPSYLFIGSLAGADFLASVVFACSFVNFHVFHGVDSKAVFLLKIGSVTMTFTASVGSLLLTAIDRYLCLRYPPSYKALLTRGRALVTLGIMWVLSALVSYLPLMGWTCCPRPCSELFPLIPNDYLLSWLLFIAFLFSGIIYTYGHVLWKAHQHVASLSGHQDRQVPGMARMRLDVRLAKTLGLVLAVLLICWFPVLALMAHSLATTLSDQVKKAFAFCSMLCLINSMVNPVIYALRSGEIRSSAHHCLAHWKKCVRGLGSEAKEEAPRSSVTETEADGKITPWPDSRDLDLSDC
# GPR55 [4] = target: T1, GPR55; details: Oka et al., 2007, read-out: ERK Phosphorylation EC50; cited from earlier work
# MDA-MB231 cells = assay: Boyden chamber migration towards FBS, Protocol II (pre-treatment of cells); format: cell-based, human; details: for Tumour cell chemotaxis (migration) to FBS after pre-incubation: 1 μM pre-incubation 30 minutes, 10% FBS, no compound gradient, 4 hours
# Procedure: (§1) Cells used for all chemotaxis assays were bathed in their respective serum-free media and incubated for 19 hours prior to experimentation. The serum starved cells were washed with 5 ml PBS and dissociated from their growth plate using 5 ml of non-enzymatic cell dissociation solution. 5 ml of the respective serum free medium was added after dissociation of the cells, and the cell suspension was transferred to a universal container and centrifuged at 2000 rpm for 5 minutes. The supernatant fluid was discarded and the remaining cell pellet was re-suspended in 2 ml of serum free medium.
# (§2) 10 μl of the resulting cell suspension was transferred to a haemocytometer and the number of cells per ml of suspension was calculated from the counted cell number. Serum free medium was added to the cell suspension in a quantity necessary to bring the suspension to a cell number of 1×10^6 cells per ml.
# (§3) Two aliquots of the 1×10^6 cells/ml, cell suspension were prepared, and quantities of 0.1% DMSO and […] (both with 0.1% DMSO vehicle) were added to one aliquot each, to bring the cell suspension concentrations to 0.01% DMSO and 1 μM test compound (with 0.01% DMSO vehicle). The cell suspensions were incubated with each compound for 30 minutes at 37° C. in 5% CO2. […]
# (§4) Migrated cells were counted using a Leitz microscope. Individual wells and their borders were visualised using a 10× objective lens and cells were then counted using a 40× objective lens. Cells found in one quarter of three non-overlapping 40× fields within each migration well were counted. The same fields were chosen in every well counted. […]
# The results for all assays done with each individual drug type were pooled by calculating the mean number of cells migrating in 0.01% DMSO vehicle control wells. The cell number for each individual well was then expressed as a percentage of the vehicle mean.
# [5] = test system: MCF7 cells transiently over-expressing GPR55; assay: Boyden chamber chemotaxis assay, GPR55 over-expressing MCF7; format: cell-based, human; details: LPI pre-incubation 1 μM
# Procedure: as §1, §2, §3
# GPR55 [6] = target: T1, GPR55; details: footnote of Table 1
# [7] = test system: vector transfected MCF7 cells; assay: Boyden chamber chemotaxis assay, vector transfected MCF7; format: cell-based, human; details: LPI pre-incubation 1 μM
# Procedure: as §1, §2, §3
# CB1 [8] = target: T3, CB1 (Homo sapiens, UniProt P21554); details: Ryberg et al., 2007, read-out: GTPγS EC50; cited from earlier work
# T3 sequence (P21554 whole entry, species assumed): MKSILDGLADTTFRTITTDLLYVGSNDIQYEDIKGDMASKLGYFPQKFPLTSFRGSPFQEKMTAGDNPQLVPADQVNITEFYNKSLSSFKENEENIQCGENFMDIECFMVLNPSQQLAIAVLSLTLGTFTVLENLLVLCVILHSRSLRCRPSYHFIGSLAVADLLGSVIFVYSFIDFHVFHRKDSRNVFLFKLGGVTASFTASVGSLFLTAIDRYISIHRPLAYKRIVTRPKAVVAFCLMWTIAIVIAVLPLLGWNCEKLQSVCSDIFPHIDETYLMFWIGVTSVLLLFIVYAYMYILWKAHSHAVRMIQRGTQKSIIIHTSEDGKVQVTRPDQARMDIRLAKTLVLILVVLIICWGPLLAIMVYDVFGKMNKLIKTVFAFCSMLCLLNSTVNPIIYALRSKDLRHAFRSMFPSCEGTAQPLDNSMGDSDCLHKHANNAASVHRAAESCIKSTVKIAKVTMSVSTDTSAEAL
# CB2 [9] = target: T2, CB2; details: Ryberg et al., 2007, read-out: GTPγS EC50; cited from earlier work
# CB1 [10] = target: T3, CB1; details: cited from earlier work
# MDA-MB-231 cells [11] = assay: Cultrex Cell Invasion Assay towards FBS; format: cell-based, human; details: CBD 1 μM pre-incubation; 24 hours
# Procedure: (§5) Cell were cultured to 80% confluence then serum starved overnight prior to beginning the assay. On ice, a 0.5×BME stock solution was prepared from the 5× stock in a conical tube and inverted to mix. 100 μl of BME stock solution was aliquoted into each well of the 24 well plate and the chamber incubated at 37° C. overnight. The following morning cells were harvested, washed once using 1× wash buffer, counted, and re-suspended to a density of 5×10^5 cells ml^−1. The top chamber was then carefully aspirated, taking care not to let chambers dry out, and 100 μl of cells per well added to the top chamber. 500 μl of media per well (with or without chemoattractant) was then added to the lower wells of the chamber. The chamber was then assembled and incubated at 37° C. in a humidified environment for 24 hours. The following day the upper chamber was carefully aspirated and washed with 100 μl of 1× wash buffer, and lower wells washed with 500 μl of wash buffer. 12 μl of Calcein-AM solution was added to 12 mL of cell dissociation fluid, and 500 μl of this solution added to the lower chamber. The chamber was then re-assembled and incubated at 37° C. for one hour. The upper chamber was then removed, and dissolved Calcein-AM was read at 485 nm excitation, 520 nm emission.
# MDA-MB231 = assay: Boyden chamber chemotaxis assay, CBD as chemoattractant (FIG. 8); format: cell-based, human; details: serum starved cells; CBD with 0.01% DMSO
# Procedure: as §1, §2
# Solutions of 10% FBS (with 0.01% DMSO vehicle), 0.01% DMSO vehicle control and 1 μM of test drug (O-1602 in 0.01% DMSO vehicle), were prepared. […]
# as §4
# [12] = test system: GPR55 over-expressing MCF7 cells; assay: Cultrex Cell Invasion Assay, GPR55 over-expressing MCF7; format: cell-based, human
# Procedure: as §5, with “emission. […]” for “emission.”
# [13] = test system: control (empty vector transfected) MCF7 cells; assay: Cultrex Cell Invasion Assay, empty vector transfected MCF7; format: cell-based, human
# Procedure: as §5, with “emission. […]” for “emission.”
# MDA-MB-231 cells [14] = assay: alamarBlue assay of cell viability; format: cell-based, human
# MG-63 cells = assay: Endocannabinoid levels in MG-63 cells treated with PTH; format: cell-based, human
# Procedure: Cells were washed in PBS and treated for 90 minutes with 200 ug/ml LPS. Values represent the mean±SEM from 3 separate donors. […] Levels of anandamide were undetectable in two control samples which precludes statistical analysis. (C) 2-AG levels in MG-63 cells treated with PTH. Cells were treated for the times indicated with 40 nM or 100 nM PTH. The results are expressed as percentage of control and are the means±SEM (n=2-4 experiments, duplicate samples for each), ** P<0.01 compared to control, ANOVA with Dunnett's multiple comparison test.
molecule,measurement,setting,value
"CCCCC/C=C\C/C=C\C/C=C\C/C=C\CCCC(=O)NCCO [AEA, anandamide]",EC50,GPR55 [1],18 nM
same,Cell migration compared to vehicle control (chemoattractant effect),MDA-MB231 subclone,significant increase in cell number
same,Drug action on receptors: GPR55,GPR55 [2],Agonist
same,F-actin ring number,human osteoclasts; 10 nM to 1 μM,did not result in a significant change
same,Resorption,human osteoclasts; 10 nM to 1 μM,significantly stimulate
same,Drug action on receptors: CB2,CB2 [3],Agonist
CCCCC/C=C\C/C=C\C/C=C\C/C=C\CCCC(=O)OC(CO)CO [2-AG],Resorptive activity,human osteoclasts; 10 nM and 100 nM,significant increase
same,Cell polarisation i.e. number of F-actin rings,"human osteoclasts; 10 nM and 100 nM, 5 days",significant increase
same,Stimulatory effect on polarisation and resorption at higher concentration,human osteoclasts; 1 μM,lost
"CCCCCCC(C)(C)c1ccc([C@@H]2C[C@H](O)CC[C@H]2CCCO)c(O)c1 [CP55940, (−)-cis-3-[2-hydroxy-4-(1,1-dimethylheptyl)phenyl]-trans-4-(3-hydroxypropyl)cyclohexanol]",Drug action on receptors: GPR55,GPR55 [2],agonists
lysophosphatidylinositol [LPI],EC50,GPR55 [4],~200 nM
same,Drug action on receptors: GPR55,GPR55 [2],Agonist^6
same,Tumour cell chemotaxis (migration) to FBS after pre-incubation,MDA-MB231 cells,significantly increases
same,FBS-induced migration,[5],enhanced
same,Selectivity for GPR55 versus CB1 and CB2 (in words),GPR55 [6],"Compounds such as O-1602 and LPI are therefore thought to be relatively selective GPR55 agonists, whilst AEA has a broad specificity."
same,Migration towards FBS,[7],unaffected
C=C(C)[C@@H]1CCC(C)=C[C@H]1c1c(C)cc(O)cc1O [O-1602],Cell migration compared to vehicle control (chemoattractant effect),MDA-MB231 subclone,significant increase in cell migration
same,EC50,CB1 [8],> 30000 nM
same,EC50,CB2 [9],> 30000 nM
same,Drug action on receptors: GPR55,GPR55 [2],Agonist
same,Drug action on receptors: CB1,CB1 [10],No action^3
same,Drug action on receptors: CB2,CB2 [3],No action
same,Selectivity for GPR55 versus CB1 and CB2 (in words),GPR55 [6],"Compounds such as O-1602 and LPI are therefore thought to be relatively selective GPR55 agonists, whilst AEA has a broad specificity."
"CCCCCc1cc(O)c2c(c1)OC(C)(C)[C@@H]1CCC(C)=C[C@@H]21 [THC, Δ-9-Tetrahydrocannabinol]",Drug action on receptors: GPR55,GPR55 [2],agonists
CCCn1c(C)c(C(=O)c2cccc3ccccc23)c2ccccc21 [JWH015],EC50,GPR55 [1],4 nM
same,Drug action on receptors: GPR55,GPR55 [2],Agonist
"C=C(C)[C@@H]1CCC(C)=C[C@H]1c1c(O)cc(CCCCC)cc1O [CBD, Cannabidiol]",IC50,"GPR55 [1]; antagonist, Brown, 2007, read-out: GTPγS IC50",350 nM
same,Tumour cell invasion towards FBS after pre-incubation,MDA-MB-231 cells [11],significantly attenuated
same,Drug action on receptors: GPR55,GPR55 [2],Antagonist^2
same,Tumour cell chemotaxis (migration) to FBS after pre-incubation,MDA-MB231 cells,significantly inhibits
same,Effect on LPI-increased chemotaxis to FBS,MDA-MB231 cells; co-incubation LPI (1 μM) combined with CBD (1 μM),prevented
same,Tumour cell migration compared to control (chemoattractant effect),MDA-MB231,no effect on tumour cell migration
same,Drug action on receptors: CB1,CB1 [10],Antagonist^7
same,FBS-induced invasion,[12],significantly inhibited
same,Basal invasion,[13],no effect
same,Cytotoxic action (cell viability),MDA-MB-231 cells [14]; 1 μM treatment for 24 hours (invasion assay),no cytotoxic action
same,Cytotoxic action (cell viability),"MDA-MB-231 cells [14]; concentrations up to 10 μM, treatment for 4 hours (migration assay)",no cytotoxic action
B1,Levels of 2-AG detected in MG-63 cells,MG-63 cells; prolonged treatment with 40 nM or 100 nM PTH,significant increase
same,Levels of anandamide detected in MG-63 cells,"MG-63 cells; prolonged treatment with PTH, data not shown",no change
